Measurements: ChEMBL document CHEMBL1201862, “PubChem BioAssay data set” (2004)
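Protocol summary: plate cells (96-well), add compound at 5 concentrations, incubate 48 h, interpolate endpoints linearly. Abbreviation: GI50, concentration required for 50% inhibition of growth.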 Activity calls are given as the source filed them. Cut-off read from the data, not from the text of the source: active = GI50 up to about 1.1 µM and inactive = higher.

Tests used:
Assay in all cases: NCI anticancer screen, dose series, 48 h
HT-29 = tested on: HT-29
U-251 = tested on: U-251
LXFL 529 = tested on: LXFL 529
NCI-H522 = tested on: NCI-H522
SF-268 = tested on: SF-268
UACC-62 = tested on: UACC-62
SK-OV-3 = tested on: SK-OV-3
HL-60 = tested on: HL-60
HCT-15 = tested on: HCT-15
EKVX = tested on: EKVX
SNB-75 = tested on: SNB-75
SNB-19 = tested on: SNB-19
M14 = tested on: M14
786-0 = tested on: 786-0
CCRF-CEM = tested on: CCRF-CEM
UO-31 = tested on: UO-31
ACHN = tested on: ACHN
HCT-116 = tested on: HCT-116
SNB-78 = tested on: SNB-78
HOP-62 = tested on: HOP-62
DMS-273 = tested on: DMS-273
K562 = tested on: K562
MOLT-4 = tested on: MOLT-4
A498 = tested on: A498
SK-MEL-5 = tested on: SK-MEL-5
LOX IMVI = tested on: LOX IMVI
Malme-3M = tested on: Malme-3M
SF-295 = tested on: SF-295
XF498 = tested on: XF498
IGROV-1 = tested on: IGROV-1
OVCAR-8 = tested on: OVCAR-8
A549 = tested on: A549
SN12C = tested on: SN12C
KM12 = tested on: KM12
SW-620 = tested on: SW-620
OVCAR-3 = tested on: OVCAR-3
SK-MEL-2 = tested on: SK-MEL-2
NCI-H23 = tested on: NCI-H23
NCI-H226 = tested on: NCI-H226
COLO 205 = tested on: COLO 205
OVCAR-4 = tested on: OVCAR-4
TK-10 = tested on: TK-10
M19-MEL = tested on: M19-MEL
HOP-18 = tested on: HOP-18
SF-539 = tested on: SF-539
DLD-1 = tested on: DLD-1
UACC-257 = tested on: UACC-257
HCC 2998 = tested on: HCC 2998
HOP-92 = tested on: HOP-92
RXF 393 = tested on: RXF 393
KM-20L2 = tested on: KM-20L2
OVCAR-5 = tested on: OVCAR-5
NCI-H460 = tested on: NCI-H460
SK-MEL-28 = tested on: SK-MEL-28
DMS-114 = tested on: DMS-114
SR = tested on: SR
RPMI-8226 = tested on: RPMI-8226

Structure (SMILES): COC(=O)CCC(NC(=S)N/N=C(\C)c1ccc[nH]1)C(=O)OC (stereo not given)
- GI50 (HT-29): > 100 µM (inactive)
- GI50 (U-251): > 100 µM (inactive)
- GI50 (LXFL 529): > 100 µM (inactive)
- GI50 (NCI-H522): > 100 µM (inactive)
- GI50 (SF-268): > 100 µM (inactive)
- GI50 (UACC-62): > 100 µM (inactive)
- GI50 (SK-OV-3): > 100 µM (inactive)
- GI50 (HL-60): > 100 µM (inactive)
- GI50 (HCT-15): > 100 µM
- GI50 (EKVX): > 100 µM (inactive)
- GI50 (SNB-75): > 100 µM (inactive)
- GI50 (SNB-19): > 100 µM (inactive)
- GI50 (M14): > 100 µM (inactive)
- GI50 (786-0): > 100 µM (inactive)
- GI50 (CCRF-CEM): > 100 µM (inactive)
- GI50 (UO-31): > 100 µM (inactive)
- GI50 (ACHN): > 100 µM (inactive)
- GI50 (HCT-116): > 100 µM (inactive)
- GI50 (SNB-78): > 100 µM (inactive)
- GI50 (HOP-62): > 100 µM (inactive)
- GI50 (DMS-273): > 100 µM (inactive)
- GI50 (K562): > 100 µM (inactive)
- GI50 (MOLT-4): > 100 µM (inactive)
- GI50 (A498): > 100 µM (inactive)
- GI50 (SK-MEL-5): > 100 µM (inactive)
- GI50 (LOX IMVI): > 100 µM (inactive)
- GI50 (Malme-3M): > 100 µM (inactive)
- GI50 (SF-295): > 100 µM (inactive)
- GI50 (XF498): > 100 µM (inactive)
- GI50 (IGROV-1): > 100 µM (inactive)
- GI50 (OVCAR-8): > 100 µM (inactive)
- GI50 (A549): > 100 µM (inactive)
- GI50 (SN12C): > 100 µM (inactive)
- GI50 (KM12): > 100 µM (inactive)
- GI50 (SW-620): > 100 µM (inactive)
- GI50 (OVCAR-3): > 100 µM (inactive)
- GI50 (SK-MEL-2): > 100 µM (inactive)
- GI50 (NCI-H23): > 100 µM (inactive)
- GI50 (NCI-H226): > 100 µM (inactive)
- GI50 (COLO 205): > 100 µM (inactive)
- GI50 (OVCAR-4): > 100 µM (inactive)
- GI50 (TK-10): > 100 µM (inactive)
- GI50 (M19-MEL): > 100 µM (inactive)
- GI50 (HOP-18): > 100 µM (inactive)
- GI50 (SF-539): > 100 µM (inactive)
- GI50 (DLD-1): > 100 µM (inactive)
- GI50 (UACC-257): > 100 µM (inactive)
- GI50 (HCC 2998): > 100 µM (inactive)
- GI50 (HOP-92): > 100 µM (inactive)
- GI50 (RXF 393): > 100 µM (inactive)
- GI50 (KM-20L2): > 100 µM (inactive)
- GI50 (OVCAR-5): > 100 µM (inactive)
- GI50 (NCI-H460): > 100 µM (inactive)
- GI50 (SK-MEL-28): > 100 µM (inactive)
- GI50 (DMS-114): > 100 µM (inactive)

Structure (SMILES): NC(=S)N1N=C2c3ccccc3CC[C@H]2[C@@H]1c1ccc(Cl)cc1
- GI50 (HT-29): 24.9 µM (inactive)
- GI50 (U-251): 37.8 µM (inactive)
- GI50 (LXFL 529): 21.2 µM (inactive)
- GI50 (NCI-H522): 9.18 µM (inactive)
- GI50 (SF-268): 32.5 µM (inactive)
- GI50 (UACC-62): 27.9 µM (inactive)
- GI50 (SK-OV-3): 36.9 µM (inactive)
- GI50 (HL-60): 17.6 µM (inactive)
- GI50 (HCT-15): 33.3 µM
- GI50 (EKVX): 37.8 µM (inactive)
- GI50 (SNB-19): 47.4 µM (inactive)
- GI50 (M14): 28.2 µM (inactive)
- GI50 (786-0): 30.6 µM (inactive)
- GI50 (CCRF-CEM): 41.3 µM (inactive)
- GI50 (UO-31): 20.8 µM (inactive)
- GI50 (SR): 26.2 µM (inactive)
- GI50 (ACHN): 24.4 µM (inactive)
- GI50 (HCT-116): 15.5 µM (inactive)
- GI50 (SNB-78): 87.3 µM (inactive)
- GI50 (HOP-62): 30.1 µM (inactive)
- GI50 (DMS-273): 24.7 µM (inactive)
- GI50 (K562): 19.5 µM (inactive)
- GI50 (MOLT-4): 18.9 µM (inactive)
- GI50 (A498): 35.5 µM (inactive)
- GI50 (LOX IMVI): 34.8 µM (inactive)
- GI50 (Malme-3M): 19.4 µM (inactive)
- GI50 (SF-295): 26.7 µM (inactive)
- GI50 (XF498): 26.4 µM (inactive)
- GI50 (IGROV-1): 19.4 µM (inactive)
- GI50 (OVCAR-8): 31.6 µM (inactive)
- GI50 (A549): 30 µM (inactive)
- GI50 (SN12C): 30.6 µM (inactive)
- GI50 (KM12): 29 µM (inactive)
- GI50 (SW-620): 38.4 µM (inactive)
- GI50 (OVCAR-3): 28.2 µM (inactive)
- GI50 (SK-MEL-2): 22.3 µM (inactive)
- GI50 (NCI-H23): 24.4 µM (inactive)
- GI50 (NCI-H226): 16.7 µM (inactive)
- GI50 (COLO 205): 17.9 µM (inactive)
- GI50 (OVCAR-4): 30.8 µM (inactive)
- GI50 (TK-10): 45.7 µM (inactive)
- GI50 (M19-MEL): 30.6 µM (inactive)
- GI50 (HOP-18): 18.6 µM (inactive)
- GI50 (SF-539): 41.7 µM (inactive)
- GI50 (RPMI-8226): 18.6 µM (inactive)
- GI50 (DLD-1): 31.7 µM (inactive)
- GI50 (UACC-257): 25.2 µM (inactive)
- GI50 (HCC 2998): 36.7 µM (inactive)
- GI50 (HOP-92): 22.3 µM (inactive)
- GI50 (RXF 393): 30 µM (inactive)
- GI50 (KM-20L2): 29.8 µM (inactive)
- GI50 (OVCAR-5): 47.6 µM (inactive)
- GI50 (NCI-H460): 27 µM (inactive)
- GI50 (SK-MEL-28): 40.8 µM (inactive)
- GI50 (DMS-114): 23.9 µM (inactive)
